Legend:
[1] = tested on: mouse embryonic fibroblasts (MEFs), Hepa 1-6 mouse hepatocellular carcinoma cells; experiment: Concentration-dependent toxicity of FIN56 with CPBA or iFSP1 in mouse cells; format: cell-based; settings: for sensitization to FIN56-induced ferroptosis in mouse cells: MEFs or Hepa 1-6 cells
Procedure: Cells were seeded onto 96-well plates (5,000 cells per well), and treated with serial dilutions of ferroptosis-inducing compounds (erastin, BSO, RSL3, FIN56) or cytotoxic drugs (staurosporine, nocodazole, tunicamycin, paclitaxel, etoposide, menadione, rotenone, FCCP, carboplatin) in the absence or presence of CPBA or iFSP1 (100 μM or 10 μM, respectively; unless stated otherwise) or the DMSO solvent control. Ferroptotic cell death was evaluated by incubating in the absence or presence of liproxstatin-1 (100 nM), ferrostatin-1 (200 nM), or deferoxamine (100 μM). Cell viability was assessed after 16 h using AquaBluer as an indicator of viable cells according to the manufacturer's recommendations (MultiTarget Pharmaceuticals, LLC). Fluorescence (excitation, 540 nm; emission, 590 nm) was analyzed on a Clariostar microplater reader.
In order to test concentration-dependent toxicity of treatment with FIN56 and either CPBA or iFSP1, we treated mouse embryonic fibroblasts (MEFs, see FIG. 21A), or Hepa 1-6 mouse hepatocellular carcinoma cells (see FIG. 21B) with DMSO solvent control, or with the indicated concentrations of CPBA or iFSP1. Ferroptotic cell death was assessed by incubation in the absence or presence of liproxstatin-1 (lip-1; A, 500 nM; B, 250 nM).

HT1080 cells [2] = experiment: Lipid droplet staining with BODIPY 493/503; format: cell-based, human; settings: CPBA 100 μM; T863 10 μM and PF-06424439 5 μM; 16 h
Procedure: HT1080 cells were seeded on glass coverslips (15,000 cells per well of 12-well plate) in complete DMEM, and incubated for 16 h with 100 μM CPBA or with 0.1% of the DMSO solvent control, in the absence or presence of inhibitors of DGAT1 and DGAT2 (10 μM T863/iDGAT1; 5 μM PF-06424439/iDGAT2). Cells were fixed with 4% para-formaldehyde, lipid droplets were stained with the neutral lipid droplet stain BODIPY 493/503 (2 μM, 30 min), and nuclei were counterstained with 4′,6-diamidino-2-phenylindole (DAPI). Cells were mounted with Immu-Mount (Fisher Scientific), and imaged by fluorescence microscopy on a THUNDER imager (THUNDER Imager Live Cell & 3D Cell Culture & 3D Assay system, Leica DMI8; Leica Microsystems), using a 63× objective.
We next investigated the impact of CPBA on triglyceride levels and ferroptosis sensitivity by first imaging lipid droplets with the neutral lipid stain BODIPY 493/503.
The diglyceride acyltransferase isoforms 1 and 2 (DGAT1, DGAT2) are required to catalyze the formation of triglycerides from diacylglycerol and acyl-CoA.

HT1080 cells [3] = experiment: Mass spectrometry lipidomics of CPBA-treated cells; format: cell-based, human; settings: 200 μM CPBA, 16 h
Procedure: Mass spectrometry-based lipid analysis was performed by Lipotype GmbH (Dresden, Germany) as described (Sampaio et al. 2011). Lipids were extracted using a two-step chloroform/methanol procedure (Ejsing et al. 2009). […]
Samples were analyzed by direct infusion on a QExactive mass spectrometer (Thermo Fisher Scientific) equipped with a TriVersa NanoMate ion source (Advion Biosciences). Samples were analyzed in both positive and negative ion modes with a resolution of Rm/z=200=280000 for MS and Rm/z=200=17500 for MSMS experiments, in a single acquisition. […]
Data were analyzed with in-house developed lipid identification software based on LipidXplorer (Herzog et al. 2011; Herzog et al. 2012). […]
Next, we analyzed the lipidomic signature of HT1080 cells treated with CPBA (200 μM, 16 h) using the lipidomics methods described above. […]

| SMILES | concentrations that are non-specifically toxic to cells ([1]; 16 h) [µM] | sensitization to FIN56-induced ferroptosis in mouse cells [1] | lipid droplets (HT1080 cells [2]) | PUFA ether lipids (PE-O, PC-O) (HT1080 cells [3]) | PUFA-triacylglycerides (HT1080 cells [3]) |
| --- | --- | --- | --- | --- | --- |
| Cc1ccc(-c2c(C#N)c(N)n3c(nc4ccccc43)c2C#N)cc1 [iFSP1, reference compound] | > 10 | does not have an effect on mouse cell lines |  |  |  |
| O=C(Nc1ccccc1C(=O)O)c1ccc(Oc2ccc(C(=O)Nc3ccccc3C(=O)O)cc2)cc1 [CPBA, 2-[[4-[4-[(2-carboxyphenyl)carbamoyl]phenoxy]benzoyl]amino]-benzoic acid] |  | sensitizes MEFs or Hepa 1-6 cells to FIN56-induced ferroptosis | triggered the accumulation of lipid droplets in HT1080 cells | downregulate polyunsaturated fatty acid (PUFA) ether lipids | upregulate PUFA-triacylglycerides (PUFA-TAGS) |

Source: patent US20250064762A1, “A SUBSTITUTED AROMATIC DICARBONIC ACID AMIDE AS AN INHIBITOR OF THE FERROPTOSIS SUPPRESSOR PROTEIN-1 (FSP1)” (JULIUS-MAXIMILIANS-UNIVERSITÄT WÜRZBURG, priority 2021, published 2025)
